This passage reports IC50 results from US9242970B2 (ACTELION PHARMACEUTICALS LTD., priority 2010, dated 2016).

One assay concerns the target human orexin-1 receptor (Homo sapiens (Human), UniProt O43613). Kind of assay: In vitro assay: intracellular calcium measurements (FLIPR), antagonistic activity. The format is cell-based. To be noted: CHO cells, 3 nM orexin-A, marked values are geometric means of n = 2-6, read-out: IC50 OX1. For orientation: Calcium flux is commonly read through the fluorescence of an indicator in the cells.

A further assay has as its target human orexin-2 receptor (Homo sapiens (Human), UniProt O43614). The assay is described as above. The format is cell-based. To be noted: CHO cells, 3 nM orexin-A, marked values are geometric means of n = 2-6, read-out: IC50 OX2.
[1] abbreviates: compound incubation time of 10 min.

Each structure is given as a SMILES string. Read-outs that look alike come from different tables or passages of the source.

Chain of human orexin-2 receptor (O43614 whole entry): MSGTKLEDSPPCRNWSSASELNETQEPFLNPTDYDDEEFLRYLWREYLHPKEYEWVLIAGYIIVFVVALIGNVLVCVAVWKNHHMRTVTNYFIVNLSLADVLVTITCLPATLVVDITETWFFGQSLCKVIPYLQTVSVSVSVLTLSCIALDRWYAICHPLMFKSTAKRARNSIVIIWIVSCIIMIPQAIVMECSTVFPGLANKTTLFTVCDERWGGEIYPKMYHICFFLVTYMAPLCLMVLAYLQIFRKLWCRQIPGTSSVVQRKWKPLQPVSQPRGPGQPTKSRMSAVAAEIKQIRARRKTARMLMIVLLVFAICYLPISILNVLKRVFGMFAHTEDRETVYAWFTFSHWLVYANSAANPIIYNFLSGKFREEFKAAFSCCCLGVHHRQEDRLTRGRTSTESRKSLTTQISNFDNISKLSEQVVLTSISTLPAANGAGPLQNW
Chain of human orexin-1 receptor (O43613 whole entry): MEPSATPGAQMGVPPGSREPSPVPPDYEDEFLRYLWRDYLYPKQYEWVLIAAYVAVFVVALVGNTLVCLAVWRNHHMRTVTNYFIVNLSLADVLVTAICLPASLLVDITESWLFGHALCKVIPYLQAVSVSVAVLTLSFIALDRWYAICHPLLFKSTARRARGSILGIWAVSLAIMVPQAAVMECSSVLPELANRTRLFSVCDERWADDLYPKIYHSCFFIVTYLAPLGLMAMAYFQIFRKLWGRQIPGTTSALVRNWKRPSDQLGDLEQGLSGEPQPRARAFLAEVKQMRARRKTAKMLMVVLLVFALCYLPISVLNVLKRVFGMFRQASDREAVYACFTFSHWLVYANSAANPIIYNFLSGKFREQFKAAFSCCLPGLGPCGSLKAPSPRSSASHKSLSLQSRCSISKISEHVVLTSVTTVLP

Usually IC50 stands for the midpoint of a concentration-inhibition curve. As for `COc1cccc(OC)c1C1CCCCC(=O)N1Cc1cnc(OC(F)F)c(Cl)c1` (stereo not drawn) [Example 89, 1-((5-chloro-6-(difluoromethoxy)pyridin-3-yl)methyl)-7-(2,6-dimethoxyphenyl)azepan-2-one], the figures for the IC50 at human orexin-1 receptor (compound incubation 120 min) and at human orexin-2 receptor (compound incubation 120 min) were 385 nM and 85 nM, respectively.
For `COc1cccc(OC)c1C1CCCCC(=O)N1Cc1ccc2oc3ccccc3c2c1` (stereo not drawn) [Example 90, 1-(dibenzo[b,d]furan-2-ylmethyl)-7-(2,6-dimethoxyphenyl)azepan-2-one] the same measures were 1 nM and 3 nM.
On to `COc1cccc(OC)c1C1CCCCC(=O)N1Cc1cccc(-c2csc(C)n2)c1` (stereo not drawn) [Example 91, 7-(2,6-dimethoxyphenyl)-1-(3-(2-methylthiazol-4-yl)benzyl)azepan-2-one], for which the IC50 on human orexin-1 receptor (compound incubation 120 min) was 1 nM; at human orexin-2 receptor (compound incubation 120 min), 3 nM.
For `COc1cccc(OC)c1C1CCCCC(=O)N1Cc1cncc(-c2ccccc2)c1` (stereo not drawn) [Example 92, 7-(2,6-dimethoxyphenyl)-1-((5-phenylpyridin-3-yl)methyl)azepan-2-one] the same measures were 1060 nM and 455 nM.
Regarding `COc1cccc(OC)c1C1CCCCC(=O)N1Cc1cccc(N2CCCC2)c1` (stereo not drawn) [Example 93, 7-(2,6-dimethoxyphenyl)-1-(3-(pyrrolidin-1-yl)benzyl)azepan-2-one], the IC50 at human orexin-1 receptor (compound incubation 120 min) was determined as 3 nM; at human orexin-2 receptor (compound incubation 120 min), 16 nM.
For `COc1cccc(OC)c1C1CCCCC(=O)N1Cc1cnn(-c2ccccc2)c1` (stereo not drawn) [Example 94, 7-(2,6-dimethoxyphenyl)-1-((1-phenyl-1H-pyrazol-4-yl)methyl)azepan-2-one] the same measures were 121 nM and 378 nM.
In the same order, the values of `COc1cccc(OC)c1C1CCCCC(=O)N1Cc1ccc2sc(C)nc2c1` (stereo not drawn) [Example 95, 7-(2,6-dimethoxyphenyl)-1-((2-methylbenzo[d]thiazol-5-yl)methyl)azepan-2-one] are 8 nM and 29 nM.
For `COc1cccc(OC)c1C1CCCCC(=O)N1Cc1cccc(-c2ccncc2)c1` (stereo not drawn) [Example 96, 7-(2,6-dimethoxyphenyl)-1-(3-(pyridin-4-yl)benzyl)azepan-2-one] the same measures were 16 nM and 85 nM.
In the case of `COc1cccc(OC)c1C1CCCCC(=O)N1Cc1cccc(-n2cccn2)c1` (stereo not drawn) [Example 97, 1-(3-(1H-pyrazol-1-yl)benzyl)-7-(2,6-dimethoxyphenyl)azepan-2-one], the half-inhibitory concentration (IC50) worked out at 5 nM at human orexin-1 receptor (compound incubation 120 min) and 20 nM at human orexin-2 receptor (compound incubation 120 min).
As for `COc1cccc(OC)c1C1CCCCC(=O)N1Cc1csc(-c2ccccc2)n1` (stereo not drawn) [Example 98, 7-(2,6-dimethoxyphenyl)-1-((2-phenylthiazol-4-yl)methyl)azepan-2-one], the IC50 on human orexin-1 receptor (compound incubation 120 min) and at human orexin-2 receptor (compound incubation 120 min) was 6 nM each time.
For `COc1cccc(OC)c1C1CCCCC(=O)N1Cc1cccc(-c2cncs2)c1` (stereo not drawn) [Example 99, 7-(2,6-dimethoxyphenyl)-1-(3-(thiazol-5-yl)benzyl)azepan-2-one], the figures for the IC50 at human orexin-1 receptor (compound incubation 120 min) and at human orexin-2 receptor (compound incubation 120 min) were 7 nM and 34 nM, respectively.
For `COc1cccc(OC)c1C1CCCCC(=O)N1Cc1cccc(-c2ncc(C)s2)c1` (stereo not drawn) [Example 100, 7-(2,6-dimethoxyphenyl)-1-(3-(5-methylthiazol-2-yl)benzyl)azepan-2-one] the same measures were 1 nM and 3 nM.
For `COc1cccc(OC)c1C1CCCCC(=O)N1Cc1cccc(-n2nccn2)c1` (stereo not drawn) [Example 101, 1-(3-(2H-1,2,3-triazol-2-yl)benzyl)-7-(2,6-dimethoxyphenyl)azepan-2-one] the same measures were 3 nM and 33 nM.
On to `COc1cccc(OC)c1C1CCCCC(=O)N1Cc1cccc(-c2cscn2)c1` (stereo not drawn) [Example 102, 7-(2,6-dimethoxyphenyl)-1-(3-(thiazol-4-yl)benzyl)azepan-2-one], for which the figures for the IC50 on human orexin-1 receptor (compound incubation 120 min) and on human orexin-2 receptor (compound incubation 120 min) were 6 nM and 19 nM, respectively.
For `COc1cccc(OC)c1C1CCCCC(=O)N1Cc1ccnc(-n2cccn2)c1` (stereo not drawn) [Example 103, 1-((2-(1H-pyrazol-1-yl)pyridin-4-yl)methyl)-7-(2,6-dimethoxyphenyl)azepan-2-one] the same measures were 8 nM and 86 nM.
For `COc1cccc(OC)c1C1CCCCC(=O)N1Cc1cccc(-n2cccn2)n1` (stereo not drawn) [Example 104, 1-((6-(1H-pyrazol-1-yl)pyridin-2-yl)methyl)-7-(2,6-dimethoxyphenyl)azepan-2-one] the same measures were 38 nM and 429 nM.
For `COc1cccc(OC)c1C1CCCCC(=O)N1Cc1ccc2nc(C)sc2c1` (stereo not drawn) [Example 105, 7-(2,6-dimethoxyphenyl)-1-((2-methylbenzo[d]thiazol-6-yl)methyl)azepan-2-one] the same measures were 155 nM and 258 nM.
`COc1cccc(OC)c1C1CCCCC(=O)N1Cc1cccc(-c2ccccn2)c1F` (stereo not drawn) [Example 106, 7-(2,6-dimethoxyphenyl)-1-(2-fluoro-3-(pyridin-2-yl)benzyl)azepan-2-one]: the IC50 on human orexin-1 receptor (compound incubation 120 min) was determined as 14 nM; on human orexin-2 receptor (compound incubation 120 min) it was 60 nM.
In the same order, the values of `COc1cccc(OC)c1C1CCCCC(=O)N1Cc1ccc(F)c(-c2ccccn2)c1` (stereo not drawn) [Example 107, 7-(2,6-dimethoxyphenyl)-1-(4-fluoro-3-(pyridin-2-yl)benzyl)azepan-2-one] are 4 nM and 22 nM.
Turning to `COc1cc(OC)c(C2CCC(=O)N2Cc2ccc(OC(F)(F)F)cc2)c(OC)c1` (stereo not drawn) [Example 108, 1-(4-(trifluoromethoxy)benzyl)-5-(2,4,6-trimethoxyphenyl)pyrrolidin-2-one], the IC50 amounted to 1930 nM on human orexin-1 receptor (setting [1]) and 271 nM at human orexin-2 receptor (setting [1]).
In the same order, the values of `COc1cccc(OC)c1C1CCC(=O)N1Cc1cnc2ccccc2c1` (stereo not drawn) [Example 109, 5-(2,6-dimethoxyphenyl)-1-(quinolin-3-ylmethyl)pyrrolidin-2-one] are 227 nM and 44 nM.
With `COc1cccc(OC)c1C1CCC(=O)N1Cc1ccc2ccccc2n1` (stereo not drawn) [Example 110, 5-(2,6-dimethoxyphenyl)-1-(quinolin-2-ylmethyl)pyrrolidin-2-one], the results for the IC50 at human orexin-1 receptor (setting [1]) and at human orexin-2 receptor (setting [1]) were 409 nM and 136 nM, respectively.
In the same order, the values of `COc1cccc(OC)c1C1CCC(=O)N1Cc1ccc2ccccc2c1` (stereo not drawn) [Example 111, 5-(2,6-dimethoxyphenyl)-1-(naphthalen-2-ylmethyl)pyrrolidin-2-one] are 168 nM and 113 nM.
In the same order, the values of `COc1cccc(OC)c1C1CCC(=O)N1Cc1cnc(OC(F)F)c(Cl)c1` (stereo not drawn) [Example 112, 1-((5-chloro-6-(difluoromethoxy)pyridin-3-yl)methyl)-5-(2,6-dimethoxyphenyl)pyrrolidin-2-one] are 646 nM and 107 nM.
Turning to `COc1cccc(OC)c1C1CCC(=O)N1Cc1cccc(-c2ccccc2)c1` (stereo not drawn) [Example 113, 1-([1,1′-biphenyl]-3-ylmethyl)-5-(2,6-dimethoxyphenyl)pyrrolidin-2-one], the figures for the IC50 at human orexin-1 receptor (compound incubation 120 min) and at human orexin-2 receptor (compound incubation 120 min) were 29 nM and 34 nM, respectively.
For `COc1cccc(OC)c1C1CCC(=O)N1Cc1ccc(-c2ccccc2)cc1` (stereo not drawn) [Example 114, 1-([1,1′-biphenyl]-4-ylmethyl)-5-(2,6-dimethoxyphenyl)pyrrolidin-2-one] the same measures were 149 nM and 184 nM.
In the case of `COc1cccc(OC)c1C1CCC(=O)N1Cc1cccc(-c2cccnc2)c1` (stereo not drawn) [Example 115, 5-(2,6-dimethoxyphenyl)-1-(3-(pyridin-3-yl)benzyl)pyrrolidin-2-one], the IC50 at human orexin-1 receptor (compound incubation 120 min) was determined as 217 nM; on human orexin-2 receptor (compound incubation 120 min), 249 nM.
For `COc1cccc(OC)c1C1CCC(=O)N1Cc1cccc2ccccc12` (stereo not drawn) [Example 116, 5-(2,6-dimethoxyphenyl)-1-(naphthalen-1-ylmethyl)pyrrolidin-2-one] the same measures were 789 nM and 291 nM.
Regarding `COc1cccc(OC)c1C1CCC(=O)N1Cc1cccc(Oc2ccccc2)c1` (stereo not drawn) [Example 117, 5-(2,6-dimethoxyphenyl)-1-(3-phenoxybenzyl)pyrrolidin-2-one], the IC50 amounted to 211 nM at human orexin-1 receptor (compound incubation 120 min) and 65 nM at human orexin-2 receptor (compound incubation 120 min).
For `COc1cccc(OC)c1C1CCC(=O)N1Cc1ccc(Oc2ccccc2)cc1` (stereo not drawn) [Example 118, 5-(2,6-dimethoxyphenyl)-1-(4-phenoxybenzyl)pyrrolidin-2-one] the same measures were 233 nM and 58 nM.
For `COc1cccc(OC)c1C1CCC(=O)N1Cc1cccc(-c2ccccn2)c1` (stereo not drawn) [Example 119, 5-(2,6-dimethoxyphenyl)-1-(3-(pyridin-2-yl)benzyl)pyrrolidin-2-one] the same measures were 57 nM and 56 nM.
For `COc1cccc(OC)c1C1CCC(=O)N1Cc1ccnc(-c2ccccc2)c1` (stereo not drawn) [Example 120, 5-(2,6-dimethoxyphenyl)-1-((2-phenylpyridin-4-yl)methyl)pyrrolidin-2-one] the same measures were 64 nM and 121 nM.
Consider `COc1cccc(OC)c1C1CCC(=O)N1Cc1cccc(-c2ccccc2)n1` (stereo not drawn) [Example 121, 5-(2,6-dimethoxyphenyl)-1-((6-phenylpyridin-2-yl)methyl)pyrrolidin-2-one], for which the IC50 was 183 nM at human orexin-1 receptor (compound incubation 120 min) and 105 nM on human orexin-2 receptor (compound incubation 120 min).
Consider `COc1cccc(OC)c1C1CC(C)C(=O)N1Cc1cccc(-c2ccccc2)c1` (stereo not drawn) [Example 122, 1-([1,1′-biphenyl]-3-ylmethyl)-5-(2,6-dimethoxyphenyl)-3-methylpyrrolidin-2-one], for which the IC50 stood at 18 nM on human orexin-1 receptor (compound incubation 120 min) and 70 nM on human orexin-2 receptor (compound incubation 120 min).
With `COc1cccc(OC)c1C1CC(C)C(=O)N1Cc1cccc(N2CCCC2)c1` (stereo not drawn) [Example 123, 5-(2,6-dimethoxyphenyl)-3-methyl-1-(3-(pyrrolidin-1-yl)benzyl)pyrrolidin-2-one], the IC50 on human orexin-1 receptor (compound incubation 120 min) stood at 13 nM; at human orexin-2 receptor (compound incubation 120 min) it was 74 nM.
In the same order, the values of `COc1cccc(OC)c1C1CCC(=O)N1Cc1cccc(-c2nccs2)c1` (stereo not drawn) [Example 124, 5-(2,6-dimethoxyphenyl)-1-(3-(thiazol-2-yl)benzyl)pyrrolidin-2-one] are 23 nM and 89 nM.
